Legend:
HT-29 cells = assay: Protection against programmed necrosis of HT-29 cells (TNF α/Smac mimetic/Z-VAD-FMK, CCK8); type: cell-based; settings: Homo sapiens, TNF α/Smac mimetic/Z-VAD-FMK induced 24 h, CCK8, read-out: HT-29 (EC50)
Procedure: In vitro protection against programmed necrosis of HT-29 cells was conducted by ourselves.
DMEM medium was purchased from Gibco Inc., penicillin and streptomycin were purchased from HyClone Inc., TNF α was purchased from PeproTech Inc., Smac mimetic and Z-VAD-FMK were purchased from Selleck Inc., CCK8 was purchased from Medchem Express Inc.
HT-29 cells (colon cancer cells) were cultured in DMEM+10% FBS+Penicillin/Streptomycin medium. During the experiments, HT-29 cells in logarithmic growth phase were harvested, seeded in a 96-well plate at specific numbers per well (typically 8×10^3 cells/well of adherent cells) and cultured overnight in a 37° C., 5% CO2 cell culture incubator. The next day, the compounds to be tested were diluted with culture medium to the corresponding concentrations and added into the corresponding wells of a 96-well plate, with 3 replicate wells for each sample, and a Vehicle control group and a blank Control group containing only culture medium were set at the same time. […] The absorbance was measured at 495 nm wavelength using a microplate reader, and the protection rate of the drug on the cells necrosis was calculated according to the following formula:
Protection rate of cell necrosis=[(X−C0)/(C−C0)]×100%
Wherein, C, C0, and X represent the mean absorbance values of the Vehicle control group, Blank control group and Drug treatment group, respectively.

RIPK1 = RIPK1 (Homo sapiens (Human), UniProt Q13546); assay: In vitro kinase assay (Eurofins Kinase Profiler), IC50; type: biochemical; settings: 0.001-10 μM, read-out: RIPK 1 (IC50)
Chain of RIPK1 (Q13546 whole entry): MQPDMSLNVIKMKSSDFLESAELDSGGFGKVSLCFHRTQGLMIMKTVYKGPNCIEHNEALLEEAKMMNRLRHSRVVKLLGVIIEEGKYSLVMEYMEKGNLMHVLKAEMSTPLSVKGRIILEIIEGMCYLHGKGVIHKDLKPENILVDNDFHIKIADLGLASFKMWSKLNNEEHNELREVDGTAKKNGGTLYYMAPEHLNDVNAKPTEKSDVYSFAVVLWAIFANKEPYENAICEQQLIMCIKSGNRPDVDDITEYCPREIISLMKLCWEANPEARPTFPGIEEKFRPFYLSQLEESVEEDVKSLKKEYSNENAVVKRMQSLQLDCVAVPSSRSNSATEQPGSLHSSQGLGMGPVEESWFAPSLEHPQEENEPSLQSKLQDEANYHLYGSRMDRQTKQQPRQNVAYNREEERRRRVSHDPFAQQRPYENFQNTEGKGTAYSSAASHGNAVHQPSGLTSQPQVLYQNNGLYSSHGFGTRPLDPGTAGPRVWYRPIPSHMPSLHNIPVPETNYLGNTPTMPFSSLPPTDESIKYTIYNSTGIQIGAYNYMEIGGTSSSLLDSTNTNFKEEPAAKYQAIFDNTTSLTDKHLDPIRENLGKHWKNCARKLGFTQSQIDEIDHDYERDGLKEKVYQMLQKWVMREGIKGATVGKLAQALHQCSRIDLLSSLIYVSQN

SMILES	EC50 (HT-29 cells) [nM]	IC50 (RIPK1) [nM]
C[C@H](NC(=O)c1cn(C)c2ccc(-c3ccn4nc(NC(=O)N5CCC[C@@H]5CO)nc4c3)cc12)c1cccc(F)c1 [Compound 177]	10 to 100	10 to 100
C[C@H](NC(=O)c1ccc2ncc(-c3ccn4nc(NC(=O)C5CC5)nc4c3)cc2c1)c1cccc(F)c1 [Compound 160]	10 to 100	10 to 100
C[C@H](NC(=O)c1cn(C)c2ccc(-c3ccn4nc(NC(=O)N5CCC(O)CC5)nc4c3)cc12)c1cccc(F)c1 [Compound 170]	< 1	1 to 10
COc1cccc([C@H](C)NC(=O)c2cn(C)c3ccc(-c4ccn5nc(NC(=O)C(C)C)nc5c4)cc23)c1 [Compound 129]	1 to 10	10 to 100
Cn1cc(C(=O)N[C@H]2CCc3ccc(F)cc32)c2cc(-c3ccn4nc(NC(=O)C5CC5)nc4c3)ccc21 [Compound 183]	100 to 1000	100 to 1000
Cc1ccc(CNC(=O)c2c[nH]c3ccc(-c4ccc5nc(NC(=O)C6CC6)sc5c4)cc23)cc1 [Compound 13]	1 to 10	10 to 100
C[C@H](NC(=O)c1c[nH]c2ccc(-c3ccc4c(N)ncnn34)cc12)c1cccc(F)c1 [Compound 83]	100 to 1000	100 to 1000
COc1cccc(CNC(=O)c2c[nH]c3ccc(-c4ccc5nc(NC(=O)C6CC6)sc5c4)cc23)c1 [Compound 12]	≥ 1000	100 to 1000
O=C(NCc1cccc(OC(F)(F)F)c1)c1c[nH]c2ccc(-c3ccc4nc(NC(=O)C5CC5)sc4c3)cc12 [Compound 19]	1 to 10	10 to 100
CC(C)C(=O)Nc1nc2cc(-c3ccc4c(c3)c(C(=O)NC(C)c3cccc(F)c3)cn4C)ccn2n1 (centres unmarked) [Compound 124]	1 to 10	10 to 100
C[C@H](NC(=O)c1c[nH]c2ccc(-c3ccc4sc(NC(=O)C5CC5)nc4c3)cc12)c1cccc(F)c1 [Compound 40]	10 to 100	100 to 1000
C[C@H](NC(=O)c1cn(C)c2ccc(-c3ccn4nc(NC(=O)C5CC(F)(F)C5)nc4c3)cc12)c1cccc(F)c1 [Compound 146]	< 1	1 to 10
C[C@@H](NC(=O)c1c[nH]c2ccc(-c3ccc4nc(NC(=O)C5CC5)sc4c3)cc12)c1ccc(F)cc1 [Compound 31]	100 to 1000	100 to 1000
O=C(NCc1ccc(C(F)(F)F)cc1)c1c[nH]c2ccc(-c3ccc4nc(NC(=O)C5CC5)sc4c3)cc12 [Compound 16]	10 to 100	10 to 100
Cn1cc(C(=O)N2CCC[C@H]2c2cccc(F)c2)c2cc(-c3ccn4nc(NC(=O)C5CC5)nc4c3)ccc21 [Compound 173]	< 1	1 to 10
C[C@H](NC(=O)c1c[nH]c2ccc(-c3ccc(NC(=O)C4CC4)cc3)cc12)c1cccc(F)c1 [Compound 42]	≥ 1000	100 to 1000
CC(C)Cn1cc(C(=O)N[C@@H](C)c2cccc(F)c2)c2cc(-c3ccn4nc(NC(=O)C(C)C)nc4c3)ccc21 [Compound 153]	100 to 1000	100 to 1000
COc1cc(F)ccc1NC(=O)c1n[nH]c2ccc(-c3ccc4nc(NC(=O)C5CC5)sc4c3)cc12 [Compound 61]	≥ 1000	≥ 1000
[2H]C([2H])([2H])n1cc(C(=O)N[C@H](c2ccc(F)cc2)C2CC2)c2cc(-c3ccn4nc(NC(=O)C5CC5)nc4c3)ccc21 [Compound 206]	< 1	1 to 10
CC(C)CNc1nc2cc(-c3ccc4c(c3)c(C(=O)N[C@@H](C)c3cccc(F)c3)cn4C)ccn2n1 [Compound 171]	< 1	1 to 10
C[C@H](NC(=O)c1cn(C)c2ccc(-c3ccc(CN4CCN(C)CC4)cc3)cc12)c1cccc(F)c1 [Compound 68]	≥ 1000	≥ 1000
C[C@H](NC(=O)c1c[nH]c2ccc(-c3ccc4nc(NC(=O)C5CCN(C)CC5)sc4c3)cc12)c1cccc(F)c1 [Compound 53]	100 to 1000	100 to 1000
COCC(=O)Nc1nc2ccc(-c3ccc4c(c3)c(C(=O)N[C@@H](C)c3cccc(F)c3)cn4C)nc2s1 [Compound 91]	100 to 1000	100 to 1000
C[C@H](NC(=O)c1cn(C)c2ccc(-c3ccn4nc(NC(=O)[C@H]5C[C@H]5F)nc4c3)cc12)c1cccc(F)c1 [Compound 143]	< 1	10 to 100
CC(C)C(=O)Nc1nc2cc(-c3cnc4c(c3)c(C(=O)N[C@@H](C)c3cccc(F)c3)cn4C)ccn2n1 [Compound 158]	< 1	1 to 10
C[C@H](NC(=O)c1cn(C)c2ccc(-c3ccc4nc(NC(=O)C5CC5)cn4n3)cc12)c1cccc(F)c1 [Compound 109]	< 1	1 to 10

SMILES	EC50 (HT-29 cells) [nM]	IC50 (RIPK1) [nM]
Cn1cc(C(=O)N2CCN(Cc3ccc4c(c3)OCO4)CC2)c2cc(-c3ccc4nc(NC(=O)C5CC5)sc4c3)ccc21 [Compound 66]	≥ 1000	≥ 1000
C[C@H](NC(=O)c1cn(C)c2ccc(-c3ccn4nc(NC(=O)[C@@H]5CCCN5)nc4c3)cc12)c1cccc(F)c1 [Compound 180]	< 1	1 to 10
CCCCn1cc(C(=O)NCc2cc(F)ccc2F)c2cc(-c3ccc4nc(NC(=O)C5CC5)sc4c3)ccc21 [Compound 58]	100 to 1000	100 to 1000
CCCn1cc(C(=O)NCc2cc(F)ccc2F)c2cc(-c3ccc4nc(NC(=O)C5CC5)sc4c3)ccc21 [Compound 57]	10 to 100	100 to 1000
C[C@H](NC(=O)c1c[nH]c2ncc(-c3ccc4nc(NC(=O)C5CC5)sc4c3)cc12)c1cccc(F)c1 [Compound 62]	1 to 10	100 to 1000
O=C(NCc1cccc(F)c1)c1c[nH]c2ccc(-c3ccc4nc(NC(=O)C5CC5)sc4c3)cc12 [Compound 4]	10 to 100	10 to 100
O=C(NCc1cccc2ccccc12)c1c[nH]c2ccc(-c3ccc4nc(NC(=O)C5CC5)sc4c3)cc12 [Compound 14]	≥ 1000	≥ 1000
C[C@H](NC(=O)c1cn(C)c2ccc(-c3ccn4nc(NC(=O)C5CCC(F)(F)CC5)nc4c3)cc12)c1cccc(F)c1 [Compound 147]	1 to 10	10 to 100
Cc1noc(C)c1CNC(=O)c1c[nH]c2ccc(-c3ccc4nc(NC(=O)C5CC5)sc4c3)cc12 [Compound 84]	100 to 1000	100 to 1000
CC(C)C(=O)Nc1nc2cc(-c3ccc4c(c3)c(C(=O)NC(C)c3cccnc3)cn4C)ccn2n1 (centres unmarked) [Compound 138]	≥ 1000	≥ 1000
O=C(NCc1ccc(F)cc1F)c1c[nH]c2ccc(-c3ccc4nc(NC(=O)C5CC5)sc4c3)cc12 [Compound 9]	1 to 10	10 to 100
O=C(NCc1ccccc1F)c1c[nH]c2ccc(-c3ccc4nc(NC(=O)C5CC5)sc4c3)cc12 [Compound 21]	1 to 10	10 to 100
CNC(=O)Nc1nc2cc(-c3ccc4c(c3)c(C(=O)N[C@@H](C)c3cccc(F)c3)cn4C)ccn2n1 [Compound 195]	< 1	< 1
C[C@H](NC(=O)c1c[nH]c2ccc(-c3ccc4nc(NC(=O)C5CCC5)sc4c3)cc12)c1cccc(F)c1 [Compound 47]	1 to 10	10 to 100
C[C@H](NC(=O)c1cn(C)c2ccc(-c3ccn4nc(NC(=O)N5CCCC(O)C5)nc4c3)cc12)c1cccc(F)c1 (some centres unmarked) [Compound 169]	< 1	1 to 10
CC(C)C(=O)Nc1nc2cc(-c3cn(C)c4ncc(C(=O)N[C@@H](C)c5cccc(F)c5)cc34)ccn2n1 [Compound 159]	100 to 1000	100 to 1000
C[C@H](NC(=O)c1cn(C)c2ccc(-c3ccn4nc(NC(=O)C5CCCO5)nc4c3)cc12)c1cccc(F)c1 (some centres unmarked) [Compound 161]	< 1	1 to 10
CC(C)C(=O)Nc1nc2cc(-c3ccc4c(c3)c(C(=O)N[C@@H](C)c3ccncc3)cn4C)ccn2n1 [Compound 175]	10 to 100	10 to 100
C[C@H](NC(=O)c1c[nH]c2ccc(-c3ccc4nc(NC(=O)C(C)(C)C)sc4c3)cc12)c1cccc(F)c1 [Compound 50]	10 to 100	10 to 100
CC(C)C(=O)Nc1nc2ccc(-c3ccc4[nH]cc(C(=O)N[C@@H](C)c5cccc(F)c5)c4c3)cc2s1 [Compound 55]	1 to 10	10 to 100
O=C(NCc1ccc2[nH]ccc2c1)c1c[nH]c2ccc(-c3ccc4nc(NC(=O)C5CC5)sc4c3)cc12 [Compound 87]	≥ 1000	≥ 1000
Cn1cc(C(=O)N2CCC[C@H]2c2cc(F)cc(F)c2)c2cc(-c3ccn4nc(NC(=O)C5CC5)nc4c3)ccc21 [Compound 192]	< 1	< 1
CCCn1cc(C(=O)N[C@@H](C)c2cccc(F)c2)c2cc(-c3ccn4nc(NC(=O)C5CC5)nc4c3)ccc21 [Compound 151]	< 1	1 to 10
C[C@H](NC(=O)c1c[nH]c2ccc(-c3ccc4nc(NC(=O)C5CCCCC5)sc4c3)cc12)c1cccc(F)c1 [Compound 49]	10 to 100	10 to 100
C[C@H](NC(=O)c1cn(C)c2ccc(-c3ccc4nc(NC(=O)C5CC5)nn4c3)cc12)c1cccc(F)c1 [Compound 155]	1 to 10	10 to 100
Cc1noc(C)c1-c1cnc2[nH]cc(C(=O)N[C@@H](C)c3cccc(F)c3)c2c1 [Compound 69]	≥ 1000	≥ 1000
